Experimental data taken from patent publication US6534518B1, “Polysubstituted 6-phenylphenanthridines with PDE-IV inhibiting activity” (Altana Pharma AG, priority 1999, dated 2003).

system: not given; assay: not given; conditions: not given

Molecule `COc1cc2c(cc1OC)[C@@H]1CCCC[C@@H]1N=C2c1ccc([N+](=O)[O-])c([N+](=O)[O-])c1` [Compound 1, (−)-cis-8,9-Dimethoxy-6-(3,4-dinitrophenyl)-1,2,3,4,4a,10b-hexahydrophenanthridine] has a melting point of 162 to 165 °C.

system: PDE4; assay: Inhibition of PDE4 activity (method of Bauer and Schwabe, microtiter plates); format: biochemical; conditions: inhibitory concentration as −log IC50 (mol/l)
Procedure: The activity test was carried out according to the method of Bauer and Schwabe, which was adapted to microtiter plates (Naunyn-Schmiedeberg's Arch. Pharmacol. 1980, 311, 193-198). The PDE reaction takes place in the first step here. In a second step, the resulting 5′-nucleotide is cleaved by a 5′-nucloetidase of the snake venom of Crotalus atrox to the uncharged nucleoside. In the third step, the nucleoside is separated from the remaining charged substrate on ion-exchange columns. The columns are eluted directly into minivials, into which 2 ml of scintillator fluid are additionally added for counting, using 2 ml of 30 mM ammonium formate (pH 6.0).
The inhibitory values determined for the compounds according to the invention [inhibitory concentration as −log IC50 (mol/l)] follow from the following Table A, in which the numbers of the compounds correspond to the numbers of the examples.

Point of comparison: `COc1cc2c(cc1OC)[C@@H]1CCCC[C@@H]1N=C2c1cc([N+](=O)[O-])cc([N+](=O)[O-])c1` [Compound 3, (−)-cis-8,9-Dimethoxy-6-(3,5-dinitrophenyl)-1,2,3,4,4a,10b-hexahydrophenanthridine], “−log IC50 (inhibition of the PDE4 activity)” value 6.56. Against it:
- COc1cc2c(cc1OC)[C@@H]1CCCC[C@@H]1N=C2c1cc(OC)c(OC)c(S(C)(=O)=O)c1 [Compound 5, (−)-cis-6-(3-Methanesulfonyl-4,5-dimethoxyphenyl)-8,9-dimethoxy-1,2,3,4,4a,10b-hexahydrophenanthridine] — higher, 7.57
- COc1cc2c(cc1OC)C1CCCCC1N=C2c1cc(C(F)(F)F)cc(C(F)(F)F)c1 (single isomer, unassigned; (-)) [Compound 2, (−)-cis-6-(Bis-3,5-trifluoromethylphenyl)-8,9-dimethoxy-1,2,3,4,4a,10b-hexahydrophenanthridine] — higher, 6.93
- COc1cc2c(cc1OC)[C@@H]1CCCC[C@@H]1N=C2c1ccc([N+](=O)[O-])c([N+](=O)[O-])c1 [Compound 1, (−)-cis-8,9-Dimethoxy-6-(3,4-dinitrophenyl)-1,2,3,4,4a,10b-hexahydrophenanthridine] — higher, 7.26
- CCOc1cc(C2=N[C@H]3CCCC[C@H]3c3cc(OC)c(OC)cc32)cc(OCC)c1OCC [Compound 6, (−)-cis-8,9-Dimethoxy-6-(3,4,5-triethoxyphenyl)-1,2,3,4,4a,10b-hexahydrophenanthridine] — higher, 7.81
- COc1cc2c(cc1OC)[C@@H]1CCCC[C@@H]1N=C2c1cc(OC)c(OC)c(OC)c1 [Compound 4, (−)-cis-8,9-Dimethoxy-6-(3,4,5-trimethoxyphenyl)-1,2,3,4,4a,10b-hexahydrophenanthridine] — higher, 6.96
